# From patent US20210101881A1 (Ancureall Pharmaceutical (Shanghai) Co., Ltd., priority 2018, published 2021)
# Assays:
# Assay in all cases: Growth inhibition of CDK9-positive tumor cell line in vitro
# Format in all cases: cell-based
# A375 = conditions: A-375, Human melanoma, read-out: Inhibitory activity (IC50) on growth in vitro, A375
# Protocol: (§1) Measurement of the Inhibitory Activity of the Present Compound on the Growth of Various Types of CDK9-Positive Tumor Cell Lines In Vitro
# (§2) The inventors selected representative CDK9-positive tumor cell lines for further determination of the compound activity. All cell lines used came from ATCC, JCRB, DSMZ and Chinese Academy of Sciences Cell Bank (ZK). Cell culture condition and method were based on the requirements of each cell line. No more than 3 passages were carried out in each culture in vitro. Monoclonal purification and STR identification of the cell line were conducted if necessary.
# KHM-5M = conditions: read-out: Inhibitory activity (IC50) on growth in vitro, Human thyroid cancer
# Protocol: as §1, §2
# KG-1 = conditions: Human acute myeloid leukemia, read-out: Inhibitory activity (IC50) on growth in vitro, KG-1
# Protocol: as §1, §2
# NCI-H1581 = conditions: Human lung cancer, read-out: Inhibitory activity (IC50) on growth in vitro, NCI-H1581
# Protocol: as §1, §2
# CAL-120 = conditions: Human breast cancer, read-out: Inhibitory activity (IC50) on growth in vitro, CAL-120
# Protocol: as §1, §2
# NCI-H460 = conditions: Human lung cancer, read-out: Inhibitory activity (IC50) on growth in vitro, NCI-H460
# Protocol: as §1, §2
# CA Ski = conditions: Human cervical cancer, read-out: Inhibitory activity (IC50) on growth in vitro, CA Ski
# Protocol: as §1, §2
# B-CPAP = conditions: BCPAP, Human thyroid cancer, read-out: Inhibitory activity (IC50) on growth in vitro, B-CPAP
# Protocol: as §1, §2
# HO8910PM = conditions: Human ovarian cancer, read-out: Inhibitory activity (IC50) on growth in vitro, HO8910PM
# Protocol: as §1, §2
# MCF7 = conditions: Human breast cancer, read-out: Inhibitory activity (IC50) on growth in vitro, MCF7
# Protocol: as §1, §2
# LN229 = conditions: LN-229, Human glioma, read-out: Inhibitory activity (IC50) on growth in vitro, LN229
# Protocol: as §1, §2
# Pfeiffer = conditions: Human B lymphocyte tumor, read-out: Inhibitory activity (IC50) on growth in vitro, Pfeiffer
# Protocol: as §1, §2
# Kasumi-1 = conditions: Human acute myeloid leukemia, read-out: Inhibitory activity (IC50) on growth in vitro, Kasumi-1
# Protocol: as §1, §2
# HCT-116 = conditions: Human intestinal cancer, read-out: Inhibitory activity (IC50) on growth in vitro, HCT-116
# Protocol: as §1, §2
# NCI-N87 = conditions: Human stomach cancer, read-out: Inhibitory activity (IC50) on growth in vitro, NCI-N87
# Protocol: as §1, §2
# KYSE70 = conditions: KYSE-70, Human esophageal cancer, read-out: Inhibitory activity (IC50) on growth in vitro, KYSE70
# Protocol: as §1, §2
# 8305C = conditions: Human thyroid cancer, read-out: Inhibitory activity (IC50) on growth in vitro, 8305C
# Protocol: as §1, §2
# HuCCT-1 = conditions: Human cholangiocarcinoma, read-out: Inhibitory activity (IC50) on growth in vitro, HuCCT-1
# Protocol: as §1, §2
# Colo205 = conditions: COLO 205, Human intestinal cancer, read-out: Inhibitory activity (IC50) on growth in vitro, Colo205
# Protocol: as §1, §2
# HCC1954 = conditions: Human breast cancer, read-out: Inhibitory activity (IC50) on growth in vitro, HCC1954
# Protocol: as §1, §2
# NCI-H1975 = conditions: Human lung cancer, read-out: Inhibitory activity (IC50) on growth in vitro, NCI-H1975
# Protocol: as §1, §2
# MFM-223 = conditions: Human breast cancer, read-out: Inhibitory activity (IC50) on growth in vitro, MFM-223
# Protocol: as §1, §2
# JIMT-1 = conditions: Human breast cancer, read-out: Inhibitory activity (IC50) on growth in vitro, JIMT-1
# Protocol: as §1, §2
# DU-145 = conditions: Human prostate cancer, read-out: Inhibitory activity (IC50) on growth in vitro, DU-145
# Protocol: as §1, §2
# TPC-1 = conditions: TPC1, Human thyroid cancer, read-out: Inhibitory activity (IC50) on growth in vitro, TPC-1
# Protocol: as §1, §2
# MDA-MB-436 = conditions: Human breast cancer, read-out: Inhibitory activity (IC50) on growth in vitro, MDA-MB-436
# Protocol: as §1, §2
# MDA-MB-453 = conditions: Human breast cancer, read-out: Inhibitory activity (IC50) on growth in vitro, MDA-MB-453
# Protocol: as §1, §2
# MDA-MB-231 = conditions: Human breast cancer, read-out: Inhibitory activity (IC50) on growth in vitro, MDA-MB-231
# Protocol: as §1, §2
# NCI-H1993 = conditions: Human lung cancer, read-out: Inhibitory activity (IC50) on growth in vitro, NCI-H1993
# Protocol: as §1, §2
SMILES,IC50 (A375),IC50 (KHM-5M),IC50 (KG-1),IC50 (NCI-H1581),IC50 (CAL-120),IC50 (NCI-H460),IC50 (CA Ski),IC50 (B-CPAP),IC50 (HO8910PM),IC50 (MCF7),IC50 (LN229),IC50 (Pfeiffer),IC50 (Kasumi-1),IC50 (HCT-116),IC50 (NCI-N87),IC50 (KYSE70),IC50 (8305C),IC50 (HuCCT-1),IC50 (Colo205),IC50 (HCC1954),other results
"Cc1cc(Nc2ncc(Cl)c(-n3cc(C(N)=O)c4ccccc43)n2)ccc1N1CCN(C(C)C)CC1 [Compound 60, 1-{5-chloro-2-[4-(4-isopropyl-piperazin-1-yl)-3-methyl-phenylamino]-pyrimidin-4-yl}-1H-indole-3-carboxamide]",100 to 1000 nM,10 to 100 nM,10 to 100 nM,10 to 100 nM,1 to 10 nM,100 to 1000 nM,10 to 100 nM,10 to 100 nM,10 to 100 nM,10 to 100 nM,100 to 1000 nM,10 to 100 nM,1 to 10 nM,100 to 1000 nM,100 to 1000 nM,100 to 1000 nM,10 to 100 nM,100 to 1000 nM,100 to 1000 nM,1 to 10 nM,IC50 (NCI-H1975): 100 to 1000 nM; IC50 (MFM-223): 10 to 100 nM; IC50 (JIMT-1): 10 to 100 nM; IC50 (DU-145): 10 to 100 nM; IC50 (TPC-1): 10 to 100 nM
"NC(=O)c1cn(-c2nc(Nc3cccc(N4CCN(C5CCOCC5)CC4)c3)ncc2F)c2ccccc12 [Compound 140, 1-(5-fluoro-2-{3-[4-(tetrahydro-pyran-4-yl)-piperazin-1-yl]-phenylamino}-pyrimidin-4-yl)-1H-indole-3-carboxamide]",1 to 10 nM,< 1 nM,< 1 nM,< 1 nM,< 1 nM,1 to 10 nM,< 1 nM,< 1 nM,< 1 nM,< 1 nM,1 to 10 nM,< 1 nM,1 to 10 nM,1 to 10 nM,1 to 10 nM,1 to 10 nM,< 1 nM,1 to 10 nM,1 to 10 nM,< 1 nM,IC50 (MDA-MB-436): < 1 nM; IC50 (MDA-MB-453): < 1 nM; IC50 (MDA-MB-231): < 1 nM; IC50 (NCI-H1975): 1 to 10 nM; IC50 (MFM-223): < 1 nM; IC50 (NCI-H1993): 1 to 10 nM; IC50 (JIMT-1): < 1 nM; IC50 (DU-145): < 1 nM; IC50 (TPC-1): < 1 nM
"CC(C)N1CCN(c2cccc(Nc3ncc(F)c(-n4cc(C(N)=O)c5ccccc54)n3)c2)CC1 [Compound 144, 1-{5-fluoro-2-[3-(4-isopropyl-piperazin-1-yl)-phenylamino]-pyrimidin-4-yl}-1H-indole-3-carboxamide]",1 to 10 nM,< 1 nM,< 1 nM,< 1 nM,< 1 nM,1 to 10 nM,< 1 nM,< 1 nM,< 1 nM,< 1 nM,< 1 nM,< 1 nM,< 1 nM,1 to 10 nM,1 to 10 nM,1 to 10 nM,< 1 nM,1 to 10 nM,1 to 10 nM,< 1 nM,IC50 (MDA-MB-436): < 1 nM; IC50 (MDA-MB-453): < 1 nM; IC50 (MDA-MB-231): < 1 nM; IC50 (NCI-H1975): 1 to 10 nM; IC50 (MFM-223): < 1 nM; IC50 (NCI-H1993): 1 to 10 nM; IC50 (JIMT-1): < 1 nM; IC50 (DU-145): < 1 nM; IC50 (TPC-1): < 1 nM
